Data: ChEMBL document CHEMBL4732075, “PROTACs suppression of GSK-3β, a crucial kinase in neurodegenerative diseases” (Eur J Med Chem, 2021)

Experiments:
[1] = target: Protein cereblon/Glycogen synthase kinase-3 beta (Rattus norvegicus) (UniProt P18266+Q56AP7); test: Protac activity at CRBN/GSK3beta in rat PC12 cells assessed as GSK3beta degradation by measuring GSK3beta protein level at 10 uM after 10 hrs by Western blotting analysis; type: cell-based; conditions: PC-12
[2] = target: Glycogen synthase kinase-3 beta (Homo sapiens, UniProt P49841); test: Inhibition of N-terminal His6-tagged recombinant human GSK3beta H350L mutant expressed in baculovirus infected Sf21 cells using GSM as substrate incubated for 30 mins in presence of ATP by Kinase-Glo luminescent assay
Sequence of Glycogen synthase kinase-3 beta (P49841 whole entry): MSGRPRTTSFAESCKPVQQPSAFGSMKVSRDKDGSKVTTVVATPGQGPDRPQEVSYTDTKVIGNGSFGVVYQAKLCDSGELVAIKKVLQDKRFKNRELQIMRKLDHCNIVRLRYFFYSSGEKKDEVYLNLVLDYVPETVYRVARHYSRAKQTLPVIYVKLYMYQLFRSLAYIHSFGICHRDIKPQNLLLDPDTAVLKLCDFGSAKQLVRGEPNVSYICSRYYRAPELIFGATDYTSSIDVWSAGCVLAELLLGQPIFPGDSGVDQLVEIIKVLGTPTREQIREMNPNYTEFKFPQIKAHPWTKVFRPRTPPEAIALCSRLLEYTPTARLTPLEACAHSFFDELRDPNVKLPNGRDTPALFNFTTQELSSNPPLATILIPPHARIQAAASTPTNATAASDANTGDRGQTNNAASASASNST

Sequence of Protein cereblon/Glycogen synthase kinase-3 beta (Rattus norvegicus) (P18266 whole entry, looked up): as the sequence (P49841 whole entry) above, with V240M, T390P, T392A, A400T, T402A counted along it
Sequence of Protein cereblon/Glycogen synthase kinase-3 beta (Rattus norvegicus) (Q56AP7 whole entry, looked up): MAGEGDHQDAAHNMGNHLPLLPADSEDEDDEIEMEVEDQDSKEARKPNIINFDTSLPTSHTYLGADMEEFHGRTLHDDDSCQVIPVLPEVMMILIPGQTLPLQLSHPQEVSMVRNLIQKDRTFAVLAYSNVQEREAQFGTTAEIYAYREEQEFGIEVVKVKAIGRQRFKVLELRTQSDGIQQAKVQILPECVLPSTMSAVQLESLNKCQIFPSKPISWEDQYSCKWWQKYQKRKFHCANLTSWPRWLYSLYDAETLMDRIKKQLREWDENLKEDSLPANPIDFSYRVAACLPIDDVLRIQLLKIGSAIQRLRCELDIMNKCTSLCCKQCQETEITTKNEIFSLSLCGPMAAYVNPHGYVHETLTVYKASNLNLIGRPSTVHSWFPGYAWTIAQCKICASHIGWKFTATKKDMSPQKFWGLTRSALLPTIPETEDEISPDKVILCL

For `CNC(=O)c1sc(-c2ccnc(NC(=O)C3CC3)c2)nc1OCCOCCOCCOCCn1cc(COc2cccc3c2C(=O)N(C2CCC(=O)NC2=O)C3=O)nn1` (centres undefined), the GSK3beta protein level remaining [1] was 54% and the IC50 [2] was 79.5 nM.

`COc1nc(-c2ccnc(NC(=O)C3CC3)c2)sc1C(=O)NCCCCCCNC(=O)COc1cccc2c1C(=O)N(C1CCC(=O)NC1=O)C2=O` (centres undefined) showed an IC50 [2] of 243 nM.

In the case of `CNC(=O)c1sc(-c2ccnc(NC(=O)C3CC3)c2)nc1OCCOCCOCCOCCOCCOc1cccc2c1C(=O)N(C1CCC(=O)NC1=O)C2=O` (centres undefined), the GSK3beta protein level remaining [1] is reported as 95.5% and the IC50 [2] is reported as 69.3 nM.

`COc1nc(-c2ccnc(NC(=O)C3CC3)c2)sc1C(=O)NCCCNC(=O)COc1cccc2c1C(=O)N(C1CCC(=O)NC1=O)C2=O` (centres undefined) was tested, and the IC50 [2] was 874 nM.

With `CNC(=O)c1sc(-c2ccnc(NC(=O)C3CC3)c2)nc1OCCC#Cc1cccc2c1CN(C1CCC(=O)NC1=O)C2=O` (centres undefined) the IC50 [2] was > 1000 nM.

In the case of `CNC(=O)c1sc(-c2ccnc(NC(=O)C3CC3)c2)nc1OCCCC#Cc1ccc2c(c1)C(=O)N(C1CCC(=O)NC1=O)C2=O` (centres undefined), the GSK3beta protein level remaining [1] is reported as 99.2% and the IC50 [2] is reported as 79.1 nM.

For `NC(=O)c1sc(-c2ccnc(NC(=O)C3CC3)c2)nc1OCCOCC#Cc1ccc2c(c1)C(=O)N(C1CCC(=O)NC1=O)C2=O` (centres undefined), the GSK3beta protein level remaining [1] was 75.3% and the IC50 [2] was 27.7 nM.

Compound `CNC(=O)c1sc(-c2ccnc(NC(=O)C3CC3)c2)nc1OCCOCCOCCOCCOc1cccc2c1C(=O)N(C1CCC(=O)NC1=O)C2=O` (centres undefined) has a GSK3beta protein level remaining [1] of 71.2% and an IC50 [2] of 73.2 nM.

Compound `CNC(=O)c1sc(-c2ccnc(NC(=O)C3CC3)c2)nc1OCCCCCCCCCCOc1cccc2c1C(=O)N(C1CCC(=O)NC1=O)C2=O` (centres undefined) has a GSK3beta protein level remaining [1] of 85.6% and an IC50 [2] of 70.4 nM.

`CNC(=O)c1sc(-c2ccnc(NC(=O)C3CC3)c2)nc1OCCOCC#Cc1ccc2c(c1)C(=O)N(C1CCC(=O)NC1=O)C2=O` (centres undefined) gave a GSK3beta protein level remaining [1] of 68.8% and an IC50 [2] of 19.7 nM.

Work on `CNC(=O)c1sc(-c2ccnc(NC(=O)C3CC3)c2)nc1OCCCCCCCCCCCCOc1cccc2c1C(=O)N(C1CCC(=O)NC1=O)C2=O` (centres undefined) yielded a GSK3beta protein level remaining [1] of 58.1% and an IC50 [2] of 98 nM.
